Assays:
HCT-116 = assay: NCI-DTP 60 cell line screen, HCT-116; format: cell-based; details: read-out: GI50 HCT-116, data provided by NCI-DTP, NA=not active
MDA-MB-231 = assay: NCI-DTP 60 cell line screen, MDA-MB-231; format: cell-based; details: read-out: GI50 MDA-MB-231, data provided by NCI-DTP, NA=not active
IGROV-1 = assay: NCI 60 cell line screen, IGROV-1; format: cell-based, human; details: read-out: GI50 IGROV-1, IGROV-1, Ovarian
U25-1 = assay: NCI 60 cell line screen, U25-1; format: cell-based; details: read-out: GI50 U25-1, U25-1, CNS
NCI-H522 = assay: NCI 60 cell line screen, NCI-H522; format: cell-based; details: read-out: GI50 NCI-H522, NCI-H522, Lung
DU-145 = assay: NCI 60 cell line screen, DU-145; format: cell-based; details: read-out: GI50 DU-145, DU-145, Prostate
A498 = assay: NCI 60 cell line screen, A498; format: cell-based, human; details: read-out: GI50 A498, A498, Renal
LOX-IMVI = assay: NCI 60 cell line screen, LOX-IMVI; format: cell-based, human; details: read-out: GI50 LOX-IMVI, Melanoma
NCI 60 cell lines = assay: NCI 60 cell line screen, single dose and overall cytotoxicity; format: cell-based
HCT-116 cells = assay: Clonogenic dose-response analysis; format: cell-based
PC-3 = details: read-out: GI50 PC-3; human prostate carcinoma cell line PC-3; cited from earlier work
LnCap = details: read-out: GI50 LnCap; human prostate carcinoma cell line LnCap; cited from earlier work
TSU-Pr1 = details: read-out: GI50 TSU-Pr1; human prostate carcinoma cell line TSU-Pr1; cited from earlier work

(+)-jasplakinolide V [Compound 13]
GI50 (HCT-116): 70 nM
GI50 (MDA-MB-231): 90 nM
GI50 (IGROV-1): 30 nM
GI50 (U25-1): 40 nM
GI50 (NCI-H522): 60 nM
GI50 (DU-145): 80 nM
GI50 (A498): 10 nM
GI50 (LOX-IMVI): 7 nM

(+)-jasplakinolide Z1 [Compound 9]
GI50 (MDA-MB-231): 2500 nM
GI50 (IGROV-1): 1760 nM
GI50 (U25-1): 600 nM
GI50 (NCI-H522): 120 nM
GI50 (DU-145): 18800 nM
GI50 (LOX-IMVI): 280 nM

(+)-jasplakinolide Z3 [Compound 11]
GI50 (MDA-MB-231): 740 nM
GI50 (IGROV-1): 170 nM
GI50 (U25-1): 50 nM
GI50 (NCI-H522): 40 nM
GI50 (DU-145): 3720 nM
GI50 (A498): 440 nM
GI50 (LOX-IMVI): 160 nM

jasplakinolide B [Compound 3, reference compound]
GI50 (MDA-MB-231): 40 nM

jasplakinolide J [Compound 5]
GI50 (HCT-116): 110 nM
GI50 (MDA-MB-231): 260 nM
GI50 (IGROV-1): 20 nM
GI50 (U25-1): 50 nM
GI50 (NCI-H522): 610 nM
GI50 (DU-145): 290 nM
GI50 (A498): 210 nM
GI50 (LOX-IMVI): 30 nM
Diminished cytotoxicity (summary in the conclusions) (NCI 60 cell lines): ≈ 1 uM

jasplakinolide Q [Compound 7]
GI50 (HCT-116): 50 nM
GI50 (MDA-MB-231): 70 nM
GI50 (IGROV-1): 10 nM
GI50 (U25-1): 30 nM
GI50 (NCI-H522): 160 nM
GI50 (DU-145): 100 nM
GI50 (A498): 80 nM
GI50 (LOX-IMVI): 20 nM

jasplakinolide [Compound 1]
Concentration achieving the desired therapeutic effect (90% kill of tumor cells) (HCT-116 cells; HCT-116, clonogenic, continuous exposure for seven days): 0.004 µM
Toxicity to HCT-116 cells in the clonogenic assay (HCT-116 cells; two hour and 24 hour dosing schedules): Little toxicity
GI50 (PC-3): 65 nM
GI50 (LnCap): 41 nM
GI50 (TSU-Pr1): 170 nM
